# Values of other authors, collected in patent US11369617B2, “Prostacyclin analogue formulations” (CAMURUS AB, priority 2016, dated 2022).
# Settings: regular s.c. administration
smiles,measurement,setting,value
CCCCC[C@H](O)CC[C@@H]1[C@H]2Cc3cccc(OCC(=O)O)c3C[C@H]2C[C@H]1O [treprostinil],"administration-site pain, patients experiencing it",,85 % of patients
same,withdrawals due to adverse events,almost all due to site pain,23 % of the long-term study population
